In the CheMixHub viscosity set:

Test: xn = mol fraction of the nth substance listed

Nc1cccc(Cl)c1 + O=C1CCCCC1
viscosity [mPa·s], 100 kPa
Conditions | x1 = 0.0814 | x1 = 0.1705 | x1 = 0.2826 | x1 = 0.3886 | x1 = 0.4996 | x1 = 0.5895 | x1 = 0.6899 | x1 = 0.7755 | x1 = 0.8882
303.15 K | 1.954 | 2.11 | 2.323 | 2.542 | 2.793 | 3.014 | 3.28 | 3.525 | 3.875
308.15 K | 1.779 | 1.92 | 2.112 | 2.31 | 2.535 | 2.733 | 2.971 | 3.191 | 3.503
313.15 K | 1.589 | 1.716 | 1.888 | 2.065 | 2.266 | 2.442 | 2.655 | 2.85 | 3.128
318.15 K | 1.382 | 1.495 | 1.648 | 1.805 | 1.984 | 2.141 | 2.33 | 2.505 | 2.753

CCCCCCCCCCCCCC[P+](CCCCCC)(CCCCCC)CCCCCC.c1c[n-]nn1 + COCCOCCOCCOCCOC
viscosity [mPa·s], 100 kPa
Conditions | 293.15 K | 298.15 K | 303.15 K | 308.15 K | 313.15 K | 318.15 K | 323.15 K
x1 = 0.499 | 80 | 65 | 53 | – | – | – | –
x1 = 0.602 | 118 | 93 | 74 | 62 | 51 | – | –
x1 = 0.69 | 172 | 134 | 106 | 85 | 69 | 57 | –
x1 = 0.793 | 250 | 190 | 147 | 116 | 93 | 76 | 63
x1 = 0.878 | 358 | 266 | 201 | 156 | 123 | 99 | 81
x1 = 0.917 | 400 | 294 | 221 | 170 | 133 | 106 | 86

CC12CCC(CC1)C(C)(C)O2 + CCCCCC
298.15 K, 101.33 kPa
Conditions | viscosity [mPa·s]
x2 = 0.0339 | 2.317
x2 = 0.0677 | 2.11
x2 = 0.1616 | 1.642
x2 = 0.2491 | 1.325
x2 = 0.3454 | 1.063
x2 = 0.4734 | 0.8
x2 = 0.6205 | 0.593
x2 = 0.7181 | 0.491
x2 = 0.8281 | 0.4
x2 = 0.8953 | 0.359
x2 = 0.9363 | 0.33

CCC(=O)O + Cc1ccccc1N
viscosity [mPa·s], 100 kPa
Conditions | x2 = 0.0977 | x2 = 0.1983 | x2 = 0.2728 | x2 = 0.3622 | x2 = 0.4952 | x2 = 0.5997 | x2 = 0.6763 | x2 = 0.7449 | x2 = 0.8891
303.15 K | 1.2 | 1.45 | 1.64 | 1.85 | 2.16 | 2.4 | 2.57 | 2.72 | 3.03
308.15 K | 1.1 | 1.31 | 1.47 | 1.65 | 1.91 | 2.11 | 2.25 | 2.38 | 2.64
313.15 K | 1 | 1.19 | 1.32 | 1.48 | 1.71 | 1.88 | 2 | 2.11 | 2.33
318.15 K | 0.91 | 1.07 | 1.18 | 1.32 | 1.51 | 1.66 | 1.76 | 1.85 | 2.03

CCC(=O)O + CCc1ccccc1
308.15 K, 101.33 kPa
Conditions | viscosity [mPa·s]
x1 = 0.1393 | 0.5916
x1 = 0.2634 | 0.6031
x1 = 0.3813 | 0.6196
x1 = 0.4881 | 0.6386
x1 = 0.5891 | 0.6621
x1 = 0.6835 | 0.6881
x1 = 0.7694 | 0.721
x1 = 0.8518 | 0.7666
x1 = 0.9275 | 0.8175

Cc1ccccc1Cl + CCCCCC
viscosity [mPa·s], 100 kPa
Conditions | 298.15 K | 308.15 K | 318.15 K
x1 = 0.0629 | 0.341 | 0.315 | 0.292
x1 = 0.1435 | 0.369 | 0.338 | 0.313
x1 = 0.2364 | 0.398 | 0.37 | 0.343
x1 = 0.3403 | 0.436 | 0.401 | 0.37
x1 = 0.4252 | 0.477 | 0.437 | 0.401
x1 = 0.4608 | 0.499 | 0.451 | 0.414
x1 = 0.5249 | 0.54 | 0.485 | 0.445
x1 = 0.5742 | 0.574 | 0.515 | 0.471
x1 = 0.6237 | 0.611 | 0.546 | 0.496
x1 = 0.6816 | 0.657 | 0.585 | 0.531
x1 = 0.7398 | 0.705 | 0.624 | 0.565
x1 = 0.8335 | 0.785 | 0.7 | 0.63
x1 = 0.9276 | 0.889 | 0.789 | 0.706

CCC(=O)O + CO
308.15 K, 101 kPa
Conditions | viscosity [mPa·s]
x1 = 0.0467 | 0.5336
x1 = 0.0975 | 0.5843
x1 = 0.157 | 0.6175
x1 = 0.2234 | 0.6789
x1 = 0.3021 | 0.7413
x1 = 0.3923 | 0.8094
x1 = 0.5024 | 0.9055
x1 = 0.6344 | 0.9763
x1 = 0.7111 | 1.021
x1 = 0.7964 | 0.9955
x1 = 0.8919 | 0.9369

CCCCN(CCO)CCCC + O=S=O
303.15 K, 100 kPa
Conditions | viscosity [mPa·s]
x2 = 0.17 | 19.3
x2 = 0.33 | 198.3
x2 = 0.45 | 2527

CCC(=O)O + C1COCO1
298.15 K, 101 kPa
Conditions | viscosity [mPa·s]
x2 = 0.1 | 1.018
x2 = 0.2 | 1.003
x2 = 0.3 | 0.9794
x2 = 0.4 | 0.9457
x2 = 0.5 | 0.9011
x2 = 0.6 | 0.8454
x2 = 0.7 | 0.788
x2 = 0.8 | 0.7223
x2 = 0.9 | 0.6544
